Test [1] has as its target T1, Gag-Pol polyprotein [489-587] (Human immunodeficiency virus 1, UniProt P04585).
T1 construct: 489-587

Test [2] concerns the target T2, Dimer of Gag-Pol polyprotein [489-587] (Human immunodeficiency virus 1, UniProt P12497).
T2 construct: 489-587
The test can be described thus: Protease Inhibition Assay. The following applies: pH 5.5; 22 °C. From the text: (§1) In the presence of HIV-l protease, the substrate is rapidly cleaved into two parts. The biotinylated amino terminal fragment binds to the avidin Pandex beads while the FITC-containing carboxy1 terminal fragment is removed through the membrane.

Test [3] deals with T1, Gag-Pol polyprotein [489-587]. The test can be described thus: Protease Inhibition Assay.
From the text: as §1

A value given as a limit tells only on which side of the number the result lay.

In general, IC50 refers to the concentration that gives 50% inhibition. A high value points to weaker potency. For `CC(C)(C)NC(=O)[C@@H]1C[C@@H]2SCC[C@@H]2CN1C[C@@H](O)[C@H](Cc1ccccc1)NC(=O)[C@@H](CS(=O)(=O)c1ccc2ccccc2c1)NS(C)(=O)=O` [(3aR,6S,7aS)-N-tert-butyl-5-[(2R,3S)-2-hydroxy-3-[(2S)-2-methanesulfonamido-3-(naphthalene-2-sulfonyl)propanamido]-4-phenylbutyl]-octahydrothieno[3,2-c]pyridine-6-carboxamide], the IC50 in test [1] and in test [2] was less than 0.2 nM in each case.
For the molecule `CC(C)(C)NC(=O)[C@@H]1C[C@@H]2SCC[C@@H]2CN1C[C@@H](O)[C@H](Cc1ccccc1)NC(=O)[C@@H](CS(=O)(=O)c1cccc2cccnc12)NS(C)(=O)=O` [(3aR,6S,7aS)-N-tert-butyl-5-[(2R,3S)-2-hydroxy-3-[(2S)-2-methanesulfonamido-3-(quinoline-8-sulfonyl)propanamido]-4-phenylbutyl]-octahydrothieno[3,2-c]pyridine-6-carboxamide], the IC50 in test [2] and in test [3] was 0.71 nM in each case.
Consider `CC(C)(C)NC(=O)[C@@H]1C[C@@H]2SCC[C@@H]2CN1C[C@@H](O)[C@H](Cc1ccccc1)NC(=O)[C@@H](CS(=O)(=O)c1ccc2ccccc2c1)NC(=O)C(F)(F)F` [(3aR,6S,7aS)-N-tert-butyl-5-[(2R,3S)-2-hydroxy-3-[(2S)-3-(naphthalene-2-sulfonyl)-2-(2,2,2-trifluoroacetamido)propanamido]-4-phenylbutyl]-octahydrothieno[3,2-c]pyridine-6-carboxamide], for which the concentration for half-maximal inhibition (IC50) in test [1] and in test [2] was less than 0.2 nM in each case.
Consider `CC(C)(C)NC(=O)[C@@H]1C[C@@H]2SCC[C@@H]2CN1C[C@@H](O)[C@H](Cc1ccccc1)NC(=O)[C@@H](CS(=O)(=O)c1cccc2cccnc12)NC(=O)C(F)(F)F` [(3aR,6S,7aS)-N-tert-butyl-5-[(2R,3S)-2-hydroxy-4-phenyl-3-[(2S)-3-(quinoline-8-sulfonyl)-2-(2,2,2-trifluoroacetamido)propanamido]butyl]-octahydrothieno[3,2-c]pyridine-6-carboxamide], for which the half-maximal inhibitory concentration (IC50) in test [2] and in test [3] was 0.21 nM each time.
On to `CC(=O)N[C@H](CS(=O)(=O)c1ccc2ccccc2c1)C(=O)N[C@@H](Cc1ccccc1)[C@H](O)CN1C[C@H]2CCS[C@H]2C[C@H]1C(=O)NC(C)(C)C` [(3aR,6S,7aS)-N-tert-butyl-5-[(2R,3S)-3-[(2S)-2-acetamido-3-(naphthalene-2-sulfonyl)propanamido]-2-hydroxy-4-phenylbutyl]-octahydrothieno[3,2-c]pyridine-6-carboxamide], for which the IC50 in test [2] and in test [3] was 0.5 nM in each case.
As for `CC(=O)N[C@H](CS(=O)(=O)c1cccc2cccnc12)C(=O)N[C@@H](Cc1ccccc1)[C@H](O)CN1C[C@H]2CCS[C@H]2C[C@H]1C(=O)NC(C)(C)C` [(3aR,6S,7aS)-N-tert-butyl-5-[(2R,3S)-3-[(2S)-2-acetamido-3-(quinoline-8-sulfonyl)propanamido]-2-hydroxy-4-phenylbutyl]-octahydrothieno[3,2-c]pyridine-6-carboxamide], the IC50 in test [2] and in test [3] was 0.42 nM in each case.
On to `CC(C)(C)NC(=O)[C@@H]1C[C@@H]2SCC[C@@H]2CN1C[C@@H](O)[C@H](Cc1ccccc1)NC(=O)[C@@H](CS(=O)(=O)c1ccc(F)cc1)NC(=O)C(F)(F)F` [(3aR,6S,7aS)-N-tert-butyl-5-[(2R,3S)-3-[(2S)-3-[(4-fluorobenzene)sulfonyl]-2-(2,2,2-trifluoroacetamido)propanamido]-2-hydroxy-4-phenylbutyl]-octahydrothieno[3,2-c]pyridine-6-carboxamide], for which the IC50 in test [1] and in test [2] was less than 0.2 nM in each case.
In the case of `CC(C)(C)NC(=O)[C@@H]1C[C@@H]2SCC[C@@H]2CN1C[C@@H](O)[C@H](Cc1ccccc1)NC(=O)[C@@H](CS(=O)(=O)c1ccc(F)cc1)NS(C)(=O)=O` [(3aR,6S,7aS)-N-tert-butyl-5-[(2R,3S)-3-[(2S)-3-[(4-fluorobenzene)sulfonyl]-2-methanesulfonamidopropanamido]-2-hydroxy-4-phenylbutyl]-octahydrothieno[3,2-c]pyridine-6-carboxamide], the IC50 in test [2] and in test [3] was 0.22 nM in each case.
On to `CC(C)(C)NC(=O)[C@@H]1C[C@@H]2CCCC[C@@H]2CN1C[C@@H](O)[C@H](Cc1ccccc1)NC(=O)[C@@H](CS(=O)(=O)c1ccc(F)cc1)NS(C)(=O)=O` [Saquinavir/Nelfinavir deriv.], for which the IC50 in test [2] and in test [3] was 2 nM throughout.

The record behind these values is BindingDB's records for doi:10.7270/Q22F7KMG (Eli Lilly, 1995).
